Article PMC2854646 (Oncogene, 2008)

Target: T1, E1 (ubiquitin-activating enzyme) (Homo sapiens, UniProt P22314)
T1 sequence (P22314 2-1058): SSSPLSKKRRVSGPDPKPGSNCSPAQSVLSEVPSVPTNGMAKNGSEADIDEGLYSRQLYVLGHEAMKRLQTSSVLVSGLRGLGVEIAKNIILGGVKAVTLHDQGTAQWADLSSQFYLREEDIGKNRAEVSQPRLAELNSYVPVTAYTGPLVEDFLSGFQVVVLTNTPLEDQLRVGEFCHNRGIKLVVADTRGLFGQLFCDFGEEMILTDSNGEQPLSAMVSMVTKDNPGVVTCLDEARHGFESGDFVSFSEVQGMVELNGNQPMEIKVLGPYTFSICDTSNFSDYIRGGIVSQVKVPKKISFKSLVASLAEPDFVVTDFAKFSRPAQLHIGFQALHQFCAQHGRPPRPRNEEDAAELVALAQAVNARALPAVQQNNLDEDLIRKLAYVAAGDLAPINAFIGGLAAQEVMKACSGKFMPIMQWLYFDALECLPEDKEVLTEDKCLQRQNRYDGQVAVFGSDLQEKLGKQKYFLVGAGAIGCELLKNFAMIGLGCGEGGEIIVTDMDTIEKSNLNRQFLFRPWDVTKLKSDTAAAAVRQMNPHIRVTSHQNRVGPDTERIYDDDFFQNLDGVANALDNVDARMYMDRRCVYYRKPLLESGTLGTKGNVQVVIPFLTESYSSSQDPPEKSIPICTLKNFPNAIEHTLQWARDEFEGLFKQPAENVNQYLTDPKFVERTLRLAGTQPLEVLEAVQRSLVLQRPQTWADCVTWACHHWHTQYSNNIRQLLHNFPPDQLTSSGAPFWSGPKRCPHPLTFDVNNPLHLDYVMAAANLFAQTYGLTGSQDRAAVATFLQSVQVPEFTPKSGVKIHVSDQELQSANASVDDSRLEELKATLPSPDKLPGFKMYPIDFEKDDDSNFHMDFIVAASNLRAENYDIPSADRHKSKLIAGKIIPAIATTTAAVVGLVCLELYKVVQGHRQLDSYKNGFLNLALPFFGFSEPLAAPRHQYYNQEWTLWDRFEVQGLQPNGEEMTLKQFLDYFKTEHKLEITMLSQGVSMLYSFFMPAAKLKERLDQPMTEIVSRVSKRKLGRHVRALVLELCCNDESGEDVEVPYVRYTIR
Assay: ubiquitin~E1 thioester immunoblot
Assay type: cell-based

How did the IC50 turn out when `CCOC(=O)N1CCN(/[N+]([O-])=N/Oc2ccc([N+](=O)[O-])cc2[N+](=O)[O-])CC1` [JS-K, O^2-(2,4-dinitrophenyl) 1-[(4-ethoxycarbonyl)piperazin-1-yl]diazen-1-ium-1,2-diolate] was run?
Its IC50 is roughly 2 µM.
